Reference: ChEMBL document CHEMBL3046942, “Synthesis and biological activity of new cycloalkylthiophene-Schiff bases and their Cr(III) and Zn(II) complexes” (2010)

Columns and labels:
[1] = test system: Proteus; experiment: Antibacterial activity against Proteus OX2 Wrah at 10 ug after 24 hr by agar well diffusion method; format: functional; details: read-out: DIZ
[2] = test system: Salmonella typhimurium; experiment: Antibacterial activity against Salmonella enterica subsp. enterica serovar Typhi H NCTC 901.8394 at 10 ug after 24 hr by agar well diffusion method; format: functional; details: H NCTC 901.8394, 24 h, read-out: DIZ
[3] = test system: Escherichia coli; experiment: Antibacterial activity against Escherichia coli ATCC 1280 at 10 ug after 24 hr by agar well diffusion method; format: functional; details: ATCC 1280, 24 h, read-out: DIZ
[4] = test system: Shigella boydii; experiment: Antibacterial activity against Shigella boydii type 6 RSKK-96043 at 10 ug after 24 hr by agar well diffusion method; format: functional; details: type 6 RSKK-96043, 24 h, read-out: DIZ
[5] = test system: Listeria monocytogenes; experiment: Antibacterial activity against Listeria monocytogenes ATCC 19115 at 10 ug after 24 hr by agar well diffusion method; format: functional; details: ATCC 19115, 24 h, read-out: DIZ
[6] = test system: Pseudomonas putida; experiment: Antibacterial activity against Pseudomonas putida at 10 ug after 24 hr by agar well diffusion method; format: functional; details: read-out: DIZ
[7] = test system: Shigella boydii; experiment: Antibacterial activity against Shigella boydii type 11 at 10 ug after 24 hr by agar well diffusion method; format: functional; details: type 11, 24 h, read-out: DIZ
[8] = test system: Shigella boydii; experiment: Antibacterial activity against Shigella boydii type 16 at 10 ug after 24 hr by agar well diffusion method; format: functional; details: type 16, 24 h, read-out: DIZ
[9] = test system: Staphylococcus aureus; experiment: Antibacterial activity against Staphylococcus aureus ATCC 25923 at 10 ug after 24 hr by agar well diffusion method; format: functional; details: ATCC 25923, 24 h, read-out: DIZ
[10] = test system: Staphylococcus aureus; experiment: Antibacterial activity against Staphylococcus aureus ATCC 25923 at 30 ug after 24 hr by agar well diffusion method; format: functional; details: ATCC 25923, 24 h, read-out: DIZ
[11] = test system: Proteus; experiment: Antibacterial activity against Proteus OX2 Wrah at 30 ug after 24 hr by agar well diffusion method; format: functional; details: read-out: DIZ
[12] = test system: Salmonella typhimurium; experiment: Antibacterial activity against Salmonella enterica subsp. enterica serovar Typhi H NCTC 901.8394 at 30 ug after 24 hr by agar well diffusion method; format: functional; details: H NCTC 901.8394, 24 h, read-out: DIZ
[13] = test system: Shigella boydii; experiment: Antibacterial activity against Shigella boydii type 11 at 30 ug after 24 hr by agar well diffusion method; format: functional; details: type 11, 24 h, read-out: DIZ
[14] = test system: Listeria monocytogenes; experiment: Antibacterial activity against Listeria monocytogenes ATCC 19115 at 30 ug after 24 hr by agar well diffusion method; format: functional; details: ATCC 19115, 24 h, read-out: DIZ
[15] = test system: Pseudomonas putida; experiment: Antibacterial activity against Pseudomonas putida at 30 ug after 24 hr by agar well diffusion method; format: functional; details: read-out: DIZ
[16] = test system: Escherichia coli; experiment: Antibacterial activity against Escherichia coli ATCC 1280 at 30 ug after 24 hr by agar well diffusion method; format: functional; details: ATCC 1280, 24 h, read-out: DIZ
[17] = test system: Shigella boydii; experiment: Antibacterial activity against Shigella boydii type 6 RSKK-96043 at 30 ug after 24 hr by agar well diffusion method; format: functional; details: type 6 RSKK-96043, 24 h, read-out: DIZ
[18] = test system: Shigella boydii; experiment: Antibacterial activity against Shigella boydii type 16 at 30 ug after 24 hr by agar well diffusion method; format: functional; details: type 16, 24 h, read-out: DIZ
[19] = test system: Shigella boydii; experiment: Antibacterial activity against Shigella boydii type 6 RSKK-96043 at 5 ug after 24 hr by agar well diffusion method; format: functional; details: type 6 RSKK-96043, 24 h, read-out: DIZ
[20] = test system: Pseudomonas putida; experiment: Antibacterial activity against Pseudomonas putida at 5 ug after 24 hr by agar well diffusion method; format: functional; details: read-out: DIZ
[21] = test system: Salmonella typhimurium; experiment: Antibacterial activity against Salmonella enterica subsp. enterica serovar Typhi H NCTC 901.8394 at 5 ug after 24 hr by agar well diffusion method; format: functional; details: H NCTC 901.8394, 24 h, read-out: DIZ
[22] = test system: Proteus; experiment: Antibacterial activity against Proteus OX2 Wrah at 5 ug after 24 hr by agar well diffusion method; format: functional; details: read-out: DIZ
[23] = test system: Listeria monocytogenes; experiment: Antibacterial activity against Listeria monocytogenes ATCC 19115 at 5 ug after 24 hr by agar well diffusion method; format: functional; details: ATCC 19115, 24 h, read-out: DIZ
[24] = test system: Shigella boydii; experiment: Antibacterial activity against Shigella boydii type 16 at 5 ug after 24 hr by agar well diffusion method; format: functional; details: type 16, 24 h, read-out: DIZ
[25] = test system: Staphylococcus aureus; experiment: microbe, parasite or virus in culture; details: ATCC 25923, 24 h, read-out: DIZ
[26] = test system: Shigella boydii; experiment: Antibacterial activity against Shigella boydii type 11 at 5 ug after 24 hr by agar well diffusion method; format: functional; details: type 11, 24 h, read-out: DIZ
[27] = test system: Salmonella typhimurium; experiment: Antibacterial activity against Salmonella enterica subsp. enterica serovar Typhi H NCTC 901.8394 at 25 ug after 24 hr by agar well diffusion method; format: functional; details: H NCTC 901.8394, 24 h, read-out: DIZ
[28] = test system: Proteus; experiment: Antibacterial activity against Proteus OX2 Wrah at 25 ug after 24 hr by agar well diffusion method; format: functional; details: read-out: DIZ
[29] = test system: Escherichia coli; experiment: microbe, parasite or virus in culture; details: ATCC 1280, 24 h, read-out: DIZ
[30] = test system: Shigella boydii; experiment: Antibacterial activity against Shigella boydii type 11 at 25 ug after 24 hr by agar well diffusion method; format: functional; details: type 11, 24 h, read-out: DIZ
[31] = test system: Listeria monocytogenes; experiment: Antibacterial activity against Listeria monocytogenes ATCC 19115 at 25 ug after 24 hr by agar well diffusion method; format: functional; details: ATCC 19115, 24 h, read-out: DIZ
[32] = test system: Staphylococcus aureus; experiment: Antibacterial activity against Staphylococcus aureus ATCC 25923 at 25 ug after 24 hr by agar well diffusion method; format: functional; details: ATCC 25923, 24 h, read-out: DIZ
[33] = test system: Shigella boydii; experiment: Antibacterial activity against Shigella boydii type 6 RSKK-96043 at 25 ug after 24 hr by agar well diffusion method; format: functional; details: type 6 RSKK-96043, 24 h, read-out: DIZ
[34] = test system: Shigella boydii; experiment: Antibacterial activity against Shigella boydii type 16 at 25 ug after 24 hr by agar well diffusion method; format: functional; details: type 16, 24 h, read-out: DIZ
[35] = test system: Pseudomonas putida; experiment: Antibacterial activity against Pseudomonas putida at 25 ug after 24 hr by agar well diffusion method; format: functional; details: read-out: DIZ

CC1(C)S[C@@H]2[C@H](NC(=O)[C@H](N)c3ccccc3)C(=O)N2[C@H]1C(=O)O [AMPICILLIN]
zone of inhibition at 10 µg/disc [1]: 9 mm | zone of inhibition at 10 µg/disc [2]: 11 mm | zone of inhibition at 10 µg/disc [3]: 10 mm | zone of inhibition at 10 µg/disc [4]: 6 mm | zone of inhibition at 10 µg/disc [5]: 16 mm | zone of inhibition at 10 µg/disc [6]: 8 mm | zone of inhibition at 10 µg/disc [7]: 20 mm | zone of inhibition at 10 µg/disc [8]: 16 mm | zone of inhibition at 10 µg/disc [9]: 30 mm

O=C(N[C@H](CO)[C@H](O)c1ccc([N+](=O)[O-])cc1)C(Cl)Cl [CHLORAMPHENICOL]
zone of inhibition at 30 µg/disc [10]: 25 mm | zone of inhibition at 30 µg/disc [11]: 27 mm | zone of inhibition at 30 µg/disc [12]: 19 mm | zone of inhibition at 30 µg/disc [13]: 18 mm | zone of inhibition at 30 µg/disc [14]: 18 mm | zone of inhibition at 30 µg/disc [15]: 12 mm | zone of inhibition at 30 µg/disc [16]: 30 mm | zone of inhibition at 30 µg/disc [17]: 18 mm | zone of inhibition at 30 µg/disc [18]: 22 mm

O=C(O)c1cn(C2CC2)c2cc(N3CCNCC3)c(F)cc2c1=O [CIPROFLOXACIN]
zone of inhibition at 5 µg/disc [19]: 30 mm | zone of inhibition at 5 µg/disc [20]: 20 mm | zone of inhibition at 5 µg/disc [21]: 23 mm | zone of inhibition at 5 µg/disc [22]: 27 mm | zone of inhibition at 5 µg/disc [23]: 17 mm | zone of inhibition at 5 µg/disc [24]: 20 mm | zone of inhibition at 5 µg/disc [25]: 25 mm | zone of inhibition at 5 µg/disc [26]: 25 mm

NC[C@H]1O[C@H](O[C@H]2[C@H](O)[C@@H](O[C@H]3O[C@H](CO)[C@@H](O)[C@H](N)[C@H]3O)[C@H](N)C[C@@H]2N)[C@H](O)[C@@H](O)[C@@H]1O [KANAMYCIN]
zone of inhibition at 30 µg/disc [10]: 25 mm | zone of inhibition at 30 µg/disc [11]: 25 mm | zone of inhibition at 30 µg/disc [12]: 20 mm | zone of inhibition at 30 µg/disc [13]: 14 mm | zone of inhibition at 30 µg/disc [14]: 15 mm | zone of inhibition at 30 µg/disc [15]: 14 mm | zone of inhibition at 30 µg/disc [16]: 25 mm | zone of inhibition at 30 µg/disc [17]: 15 mm | zone of inhibition at 30 µg/disc [18]: 16 mm

Cc1cc(NS(=O)(=O)c2ccc(N)cc2)no1 [SULFAMETHOXAZOLE]
zone of inhibition at 25 µg/disc [27]: 17 mm | zone of inhibition at 25 µg/disc [28]: 20 mm | zone of inhibition at 25 µg/disc [29]: 18 mm | zone of inhibition at 25 µg/disc [30]: 19 mm | zone of inhibition at 25 µg/disc [31]: 11 mm | zone of inhibition at 25 µg/disc [32]: 24 mm | zone of inhibition at 25 µg/disc [33]: 20 mm | zone of inhibition at 25 µg/disc [34]: 20 mm | zone of inhibition at 25 µg/disc [35]: 18 mm
